Test results as given in PubChem BioAssay AID602427 (Sanford-Burnham Center for Chemical Genomics, 2012).
Calls of active or inactive are those of the source.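 Rule for the calls: active = EC50 at or below 20 micromolar; inactive = the rest.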

Each molecule was assayed against Neurotensin receptor type 1 (Homo sapiens) (UniProt P30989) (assay: NTSR1 activation via enzyme-fragment complementation – cell-based, luminescence, CHO-K1 NTSR1 PathHunter, orthogonal assay for NTR1 agonist project, SAR follow-up (AID 602427;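 note: agonist potency for NTR1 activation where higher luminescence means more arrestin recruitment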)). Details: CHO-K1 NTSR1 PathHunter beta-arrestin.
Neurotensin receptor type 1 (Homo sapiens), sequence (P30989 whole entry, looked up, the tested form may be a part): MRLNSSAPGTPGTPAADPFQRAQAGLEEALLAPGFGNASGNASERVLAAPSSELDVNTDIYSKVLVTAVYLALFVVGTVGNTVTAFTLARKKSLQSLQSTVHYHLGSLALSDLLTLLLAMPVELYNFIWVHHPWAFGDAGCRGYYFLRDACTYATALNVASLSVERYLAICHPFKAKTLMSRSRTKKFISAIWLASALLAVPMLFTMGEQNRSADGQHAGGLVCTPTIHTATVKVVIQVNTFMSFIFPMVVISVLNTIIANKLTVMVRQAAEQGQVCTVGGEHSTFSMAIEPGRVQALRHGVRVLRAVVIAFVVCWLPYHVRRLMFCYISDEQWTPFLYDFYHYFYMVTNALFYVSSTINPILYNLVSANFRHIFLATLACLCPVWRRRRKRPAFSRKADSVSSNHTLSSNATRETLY

| SMILES | EC50 |
| --- | --- |
| COc1ccc(-n2ncc3c(N4CCN(c5ccccc5)CC4)ncnc32)cc1 | > 33 µM (inactive) |
| COc1ccc2c(c1)c1nnc(-c3ccc(F)cc3)c-1cn2Cc1ccccc1 | > 33 µM (inactive) |
| COc1cc2c3nnc(-c4ccc(F)cc4)c-3cn(CC3CC3)c2cc1OC | > 33 µM (inactive) |
| COc1cc2c3nnc(-c4ccc(F)cc4)c-3cn(Cc3cccnc3)c2cc1OC | > 33 µM (inactive) |
| Cc1ccc(Cn2cc3c(-c4ccc(Cl)cc4)nnc-3c3cc4c(cc32)OCO4)cc1 | > 33 µM (inactive) |
| O=C(c1ccccc1)c1cn(Cc2ccccc2)c2ccccc2c1=O | > 33 µM (inactive) |
| COc1ccc2nc(C3CCC3)nc(N3CCN(c4ccccc4OC)CC3)c2c1 | inactive |
| CCN(CC)c1ccc(/C=N/Nc2nc(-c3ccc(S(=O)(=O)N(C)C)cc3)cs2)cc1 | > 33 µM (inactive) |
| COc1cc2c3nnc(-c4ccc(Cl)cc4)c-3cn(Cc3ccc(C)cc3)c2cc1OC | > 33 µM (inactive) |
| COc1cccc(OC)c1-c1nc(C(=O)N[C@@H](CC(C)C)C(=O)O)cn1-c1ccnc2ccccc12 | 18.2 µM |
| COc1ccccc1-c1cc(C(=O)O)nn1-c1ccnc2cc(Cl)ccc12 | > 33 µM (inactive) |
| COc1cc2nc(SCc3ccncc3)n(Cc3cccc(C(F)(F)F)c3)c(=N)c2cc1OC | > 33 µM (inactive) |
| COc1cc2nc(C3CCC3)nc(N3CCN(c4ccccc4C)CC3)c2cc1OC | > 33 µM (inactive) |
| COc1ccc(Cn2cc3c(-c4ccc(OC)cc4)nnc-3c3ccccc32)cc1 | > 33 µM (inactive) |
| COc1cc2ncc3c(-c4ccc(F)cc4)n[nH]c3c2cc1OC | > 33 µM (inactive) |
| Cc1cccc(-n2ncc3c(N4CCN(c5ccccc5)CC4)ncnc32)c1 | > 33 µM (inactive) |
| COc1ccc(-c2nnc3c4ccccc4n(CCc4ccccc4)cc2-3)cc1 | > 33 µM (inactive) |
| N=c1c2ccccc2nc(SCc2ccc(Cl)cc2)n1Cc1ccccc1 | > 33 µM (inactive) |
| COc1cccc(OC)c1-c1cc(C(=O)NC2(C(=O)O)C3CC4CC(C3)CC2C4)nn1-c1ccnc2cc(Cl)ccc12 (centres undefined) | > 33 µM (inactive) |
| Cc1ccc(-c2nnc3c4cc5c(cc4n(Cc4ccccc4)cc2-3)OCO5)cc1 | > 33 µM (inactive) |
| Cc1ccc(Cn2cc3c(-c4ccc(C)cc4)nnc-3c3cc4c(cc32)OCO4)cc1 | > 33 µM (inactive) |
| COc1cc2nc(-c3ccccc3)nc(N3CCN(c4ccccc4)CC3)c2cc1OC | > 33 µM (inactive) |

| SMILES | EC50 |
| --- | --- |
| COc1cc2c3nnc(-c4ccc(F)cc4)c-3cn(Cc3cccc(C)c3)c2cc1OC | > 33 µM (inactive) |
| COc1cccc(OC)c1-c1nc(C(=O)O)cn1-c1ccncc1 | > 33 µM (inactive) |
| COc1cc2c3nnc(-c4ccc(Cl)cc4)c-3cn(Cc3ccc(F)cc3)c2cc1OC | > 33 µM (inactive) |
| c1ccc(N2CCN(c3ncnc4c3cnn4-c3ccccc3)CC2)cc1 | > 33 µM (inactive) |
| COc1ccc(/C=N/Nc2nc(-c3ccc(S(=O)(=O)N(C)C)cc3)cs2)cc1OC | > 33 µM (inactive) |
| COc1cc2c3nnc(-c4ccc(F)cc4)c-3cn(Cc3cccc(N(C)C)c3)c2cc1OC | > 33 µM (inactive) |
| Cc1ccc(-c2nnc3c4cc5c(cc4n(Cc4ccc(F)cc4)cc2-3)OCO5)cc1 | > 33 µM (inactive) |
| COc1cc2c3nnc(-c4ccc(C)c(C)c4)c-3cn(Cc3ccc(F)cc3)c2cc1OC | > 33 µM (inactive) |
| Fc1ccc(-n2ncc3c(N4CCN(c5ccccc5)CC4)ncnc32)cc1 | > 33 µM (inactive) |
| COc1ccc(N2CCN(c3ncnc4c3cnn4-c3ccc(C)cc3C)CC2)cc1 | > 33 µM (inactive) |
| COc1ccc2c3nnc(-c4ccc(C)cc4)c-3cn(Cc3ccc(C)cc3)c2c1 | > 33 µM (inactive) |
| COc1cc2c3nnc(-c4ccc(F)cc4)c-3cn(Cc3ccc(OC(F)(F)F)cc3)c2cc1OC | > 33 µM (inactive) |
| COc1cc2c(=O)c(C(=O)c3ccc(F)cc3)cn(Cc3ccc(N(C)C)cc3)c2cc1OC | > 33 µM (inactive) |
| CC(C)C[C@H](NC(=O)c1cn(-c2ccnc3ccccc23)c2ccccc12)C(=O)O | > 33 µM (inactive) |
| COc1ccccc1N1CCN(c2ncnc3c2cnn3-c2ccc(C)cc2C)CC1 | inactive |
| COc1ccc(/C=N/Nc2nc(-c3ccc(S(=O)(=O)N(C)C)cc3)cs2)cc1 | > 33 µM (inactive) |
| Cc1ccc(/C=N/Nc2nc(-c3ccc(S(=O)(=O)N(C)C)cc3)cs2)cc1 | > 33 µM (inactive) |
| COc1cc2c(=O)c(C(=O)c3ccc(F)cc3)cn(CC3CC3)c2cc1OC | > 33 µM (inactive) |
| COc1cc2nc(-c3ccccc3)nc(N3CCN(c4ccc(Cl)cc4)CC3)c2cc1OC | > 33 µM (inactive) |
| COc1cc2nc(-c3ccccc3)nc(N3CCN(c4ccc(F)cc4)CC3)c2cc1OC | > 33 µM (inactive) |
| COc1cccc(OC)c1-c1cc(C(=O)N[C@@H](CC(C)C)C(=O)OC(C)(C)C)nn1-c1ccnc2cc(Cl)ccc12 | > 33 µM (inactive) |
| Cc1ccc(-n2ncc3c(N4CCN(c5ccccc5)CC4)ncnc32)cc1 | > 33 µM (inactive) |

| SMILES | EC50 |
| --- | --- |
| Cc1ccc(-n2ncc3c(N4CCN(c5cccc(Cl)c5)CC4)ncnc32)c(C)c1 | > 33 µM (inactive) |
| COc1cc2c3nnc(-c4ccccc4)c-3cn(Cc3ccc(C)cc3)c2cc1OC | > 33 µM (inactive) |
| CCn1cc(C(=O)c2ccc(OC)cc2)c(=O)c2ccccc21 | > 33 µM (inactive) |
| COc1ccc(-c2nnc3c4ccccc4n(Cc4ccc(Cl)cc4)cc2-3)cc1 | > 33 µM (inactive) |
| COc1ccc2c(N3CCN(c4ccccc4OC)CC3)nc(C3CCC3)nc2c1 | > 33 µM (inactive) |
| COc1ccc(Cn2c(SCc3ccc(C)cc3)nc3cc(OC)c(OC)cc3c2=N)cc1Cl | > 33 µM (inactive) |
| COc1ccc(-c2nnc3c4ccccc4n(Cc4ccncc4)cc2-3)cc1 | > 33 µM (inactive) |
| CC(C)C[C@H](NC(=O)c1cn(-c2ccnc3ccccc23)c(-c2ccccc2)n1)C(=O)O | > 33 µM (inactive) |
| COc1ccc(Cn2c(SCc3cc(C)ccc3C)nc3cc(OC)c(OC)cc3c2=N)cc1Cl | > 33 µM (inactive) |
| COc1cc2nc(C3CCC3)nc(N3CCN(c4ccccc4Cl)CC3)c2cc1OC | > 33 µM (inactive) |
| COc1cccc(N2CCN(c3ncnc4c3cnn4-c3ccc(C)cc3C)CC2)c1 | > 33 µM (inactive) |
| Cc1ccc(C)c(-n2ncc3c(N4CCN(c5ccccc5)CC4)ncnc32)c1 | > 33 µM (inactive) |
| COc1cccc2c(C(=O)N[C@@H](CC(C)C)C(=O)O)cn(-c3ccnc4cc(Cl)ccc34)c12 | > 33 µM (inactive) |
| CC(C)C[C@H](NC(=O)c1nc(-c2ccncc2)c(-c2ccccc2)s1)C(=O)O | > 33 µM (inactive) |
| COc1ccc(C(=O)c2cn(Cc3ccc(N(C)C)cc3)c3ccccc3c2=O)cc1 | > 33 µM (inactive) |
| COc1ccc2c(c1)c(=O)c(C(=O)c1ccc(F)cc1)cn2Cc1ccccc1 | > 33 µM (inactive) |
| Clc1ccccc1-n1ncc2c(N3CCN(c4ccccc4)CC3)ncnc21 | > 33 µM (inactive) |
| Clc1ccc(-n2ncc3c(N4CCN(c5ccccc5)CC4)ncnc32)cc1 | > 33 µM (inactive) |
| COc1cc2c3nnc(-c4ccc(F)cc4)c-3cn(Cc3ccc(N(C)C)cc3)c2cc1OC | > 33 µM (inactive) |
| COc1ccccc1-c1nc(C(=O)N[C@@H](CC(C)C)C(=O)O)cn1-c1ccnc2ccccc12 | > 33 µM (inactive) |
